Assay: Tooth bleaching effectiveness of gels on extracted human teeth (chroma meter, Delta E)
Conditions: comparison of catalase inhibitors
Experimental: Tooth bleaching effectiveness of the above gels was determined by using extracted human teeth. The teeth were freshly extracted, freed of all adherent tissues and stored in a sterile saline solution. The teeth were removed and the color was measured using a chroma meter commercially available from MINOLTA CR221. Readings were taken to record the L*, a*, and b* parameters. The teeth were then incubated in the various gels for 30 minutes. After this period, the gels were washed off and L*, a*, and b* parameters color re-measured. The change in color (Delta E) was then calculated using the CIE L*a*b* color difference equation:
Delta E=[(delta L*)^2+(delta a*)^2+(delta b*)^2]^0.5

[F-].[Na+] [sodium fluoride]
effectiveness among the compositions comprising the inhibitors: least effective
